The results in this text go back to patent publication US20240279281A1, “Peptide Inhibitors of Interleukin-23 Receptor” (Janssen Pharmaceutica NV, priority 2023, published 2024).

The structures appear in SMILES notation. Read-outs that look alike come from different tables or passages of the source. Starred links: 1 amine or outer side, 2 acyl side, 3 side chain; linkers in the order of their positions; H or OH if unused. Positions of bridges follow the written chain, without caps; N, C: chain ends. Non-standard residues stand in square brackets, D forms with d. Residues, ends and D or L forms follow the SMILES beside them. *: point of attachment. X22 = CN(CCOCCOCC(=O)N(C)CCOCCOCC(=O)*)C(=O)CC[C@@H](C(=O)O)N(C)C(=O)CCCCCCCCCCCCCCCCCc1nnn[nH]1; Trp(7-(3-AcNH-Ph)) = CC(=O)Nc1cccc(-c2cccc3c(C[C@H](N)C(=O)O)c[nH]c23)c1; X12 = O=C([C@H](Cc1ccc2cc(F)ccc2c1)N[*:1])[*:2]; 2Nal(6-OH) = N[C@@H](Cc1ccc2cc(O)ccc2c1)C(=O)O; Trp(7-Me) = Cc1cccc2c(C[C@H](N)C(=O)O)c[nH]c12; AEF = NCCOc1ccc(C[C@H](N)C(=O)O)cc1; 3Pal = N[C@@H](Cc1cccnc1)C(=O)O; Pen = CC(C)(S)[C@H](N)C(=O)O; Thp = NC1(C(=O)O)CCOCC1; Sar = CNCC(=O)O

The conditions of data set [1]: disulfide bond, 20-membered ring, I2/MeOH, 20% MeCN/H2O.
In the next data set the target is T1, IL-23R (Homo sapiens, UniProt Q5VWK5).
T1 construct: host or cells: HEK293
T1 sequence (Q5VWK5 24-629): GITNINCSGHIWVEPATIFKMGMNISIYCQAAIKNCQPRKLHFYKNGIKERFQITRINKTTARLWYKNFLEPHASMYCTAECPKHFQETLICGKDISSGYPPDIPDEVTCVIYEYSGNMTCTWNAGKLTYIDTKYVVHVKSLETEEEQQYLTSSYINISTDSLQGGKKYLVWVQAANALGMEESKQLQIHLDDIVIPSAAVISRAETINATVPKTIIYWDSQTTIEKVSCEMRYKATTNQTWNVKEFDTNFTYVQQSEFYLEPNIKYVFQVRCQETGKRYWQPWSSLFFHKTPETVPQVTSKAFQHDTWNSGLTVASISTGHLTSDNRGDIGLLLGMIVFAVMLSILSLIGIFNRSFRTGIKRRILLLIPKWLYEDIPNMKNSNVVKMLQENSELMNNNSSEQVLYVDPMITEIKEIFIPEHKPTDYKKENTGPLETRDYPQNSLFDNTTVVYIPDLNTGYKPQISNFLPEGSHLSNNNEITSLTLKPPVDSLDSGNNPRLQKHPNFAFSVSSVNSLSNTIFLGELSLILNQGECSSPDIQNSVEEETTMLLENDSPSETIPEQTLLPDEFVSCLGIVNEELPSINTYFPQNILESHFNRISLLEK
The data set is described as follows: IL23R Reporter Assay. The format is cell-based. As for the experimental part:
Compounds were serially diluted in 100% (v/v) DMSO) and plated using an Echo acoustic dispenser (Labcyte) into 1536-well non-treated black assay plates (Corning #9146). […] After 5 h at 37° C., 5% CO2, 95% relative humidity, cells were placed at 20° C. and treated with BioGlo reagent (Promega) according to the Manufacturer's instructions. Luminescence was measured on a Pherastar FSX (BMG LabTech).
(A reporter such as luciferase makes a cellular process visible.)

Data set [2] has as its target T2, IL-23-stimulated phosphorylated STAT3 in peripheral blood mononuclear cells (PBMCs) (Homo sapiens, UniProt Q5VWK5).
T2 sequence (Q5VWK5 24-629): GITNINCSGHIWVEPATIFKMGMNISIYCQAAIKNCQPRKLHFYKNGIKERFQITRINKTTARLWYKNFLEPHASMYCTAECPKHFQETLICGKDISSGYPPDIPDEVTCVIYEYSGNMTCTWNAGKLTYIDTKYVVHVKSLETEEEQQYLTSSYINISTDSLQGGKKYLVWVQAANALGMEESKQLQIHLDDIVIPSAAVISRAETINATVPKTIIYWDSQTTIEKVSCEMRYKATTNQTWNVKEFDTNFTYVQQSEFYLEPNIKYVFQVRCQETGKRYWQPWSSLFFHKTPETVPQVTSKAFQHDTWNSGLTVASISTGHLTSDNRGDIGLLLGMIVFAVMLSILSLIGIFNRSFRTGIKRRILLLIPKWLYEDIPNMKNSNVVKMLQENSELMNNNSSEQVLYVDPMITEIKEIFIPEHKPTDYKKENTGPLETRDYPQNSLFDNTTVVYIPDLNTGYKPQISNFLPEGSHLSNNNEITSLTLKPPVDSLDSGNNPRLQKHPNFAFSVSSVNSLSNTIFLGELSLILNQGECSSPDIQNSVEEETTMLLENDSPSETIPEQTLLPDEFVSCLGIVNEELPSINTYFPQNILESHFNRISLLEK
Kind of data set: PBMC pSTAT3 Assay. It counts as cell-based. Summed up:
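Anti-CD3/IL-1β-expanded donor PBMCs (day 4) starved ~4 h in RPMI-0.1% BSA, preincubated 30 min with peptide, then stimulated 30 min at 37° C with 5 ng/mL IL-23 (final). Lysates read for phospho-STAT3 by Meso Scale phospho-STAT panel immunoassay.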

[3] abbreviates: HEK293 cells containing IL-23R, IL-12Rβ1 and STAT-inducible luciferase reporter, 10 ng/mL IL-23, 5 h, read-out: IC50.
Where [4] appears, read: PBMCs from healthy donors, IL-23 5 ng/mL, 30 minutes, read-out: PBMC pSTAT3 IC50.

For `CC(=O)NCCCC[C@@H]1NC(=O)[C@H](Cc2c[nH]c3c(C)cccc23)NC(=O)[C@H]([C@@H](C)O)NC(=O)[C@H](CC(N)=O)NC(=O)[C@@H](NC(C)=O)C(C)(C)SSC(C)(C)[C@@H](C(=O)N[C@@H](Cc2ccc(OCCN)cc2)C(=O)N[C@@H](Cc2ccc3cc(O)ccc3c2)C(=O)NC2(C(=O)N[C@@H](CCC(=O)O)C(=O)N[C@@H](CC(N)=O)C(=O)N[C@@H](Cc3cccnc3)C(=O)N(C)CC(N)=O)CCOCC2)NC1=O` [SEQ ID NO: 428, MeCO-Pen(3)-N-T-7MeW-K(Ac)-Pen(3)-AEF-6OH2Nal-THP-E-N-3Pya-Sar-CONH2] (Ac-[Pen]NT[Trp(7-Me)]K(Ac)[Pen][AEF][2Nal(6-OH)][Thp]EN[3Pal][Sar]-NH2; disulfide 1-6), the ring closure, yield after HPLC in data set [1] (from Ac-Pen-Asn-Thr-7MeTrp-Lys(Ac)-Pen-AEF-6OH2Nal-THP-Glu-Asn-3Pya-Sar-NH2, 1.0 mM) worked out at 8.61%. The IC50 is less than 10 nM at IL-23R (setting [3]) and less than 0.01 nM in data set [2] (setting [4]).
On to `CC(=O)NCCCC[C@@H]1NC(=O)[C@H](Cc2c[nH]c3c(-c4cccc(NC(C)=O)c4)cccc23)NC(=O)[C@H]([C@@H](C)O)NC(=O)[C@H](CC(N)=O)NC(=O)[C@@H](NC(=O)[C@@H](CCCNC(=N)N)NC(C)=O)C(C)(C)SSC(C)(C)[C@@H](C(=O)N[C@@H](Cc2ccc(OCCN)cc2)C(=O)N[C@@H](Cc2ccc3cc(O)ccc3c2)C(=O)NC2(C(=O)N[C@@H](CCC(=O)O)C(=O)N[C@@H](CC(N)=O)C(=O)N[C@@H](Cc3cccnc3)C(=O)N(C)CC(N)=O)CCOCC2)NC1=O` [compound 287, MeCO-r-Pen(3)-N-T-7(3NAcPh)W-K(Ac)-Pen(3)-AEF-6OH2Nal-THP-E-N-3Pya-Sar-CONH2] (Ac-[dR][Pen]NT[Trp(7-(3-AcNH-Ph))]K(Ac)[Pen][AEF][2Nal(6-OH)][Thp]EN[3Pal][Sar]-NH2; disulfide 2-7), for which the ring closure, yield after HPLC in data set [1] (from Ac-dArg-Pen-Asn-Thr-7(3NAcPh)Trp-Lys(Ac)-Pen-AEF-6OH2Nal-THP-Glu-Asn-3Pya-Sar-NH2, 0.8 mM) came to 26%. The figures for the IC50 (at IL-23R (setting [3]); in data set [2] (setting [4])) were less than 10 nM and 0.01 to 0.1 nM, respectively.
`CC(=O)NCCCC[C@@H]1NC(=O)[C@H](Cc2c[nH]c3c(C)cccc23)NC(=O)[C@H]([C@@H](C)O)NC(=O)[C@H](CC(N)=O)NC(=O)[C@@H](NC(=O)[C@@H](CCCNC(=N)N)NC(C)=O)C(C)(C)SSC(C)(C)[C@@H](C(=O)N[C@@H](Cc2ccc(OCCN)cc2)C(=O)N[C@@H](Cc2ccc3cc(F)ccc3c2)C(=O)NC2(C(=O)N[C@@H](CCC(=O)O)C(=O)N[C@@H](CC(N)=O)C(=O)N[C@@H](Cc3cccnc3)C(=O)N(C)CC(N)=O)CCOCC2)NC1=O` [SEQ ID NO: 407, MeCO-r-Pen(3)-N-T-7MeW-K(Ac)-Pen(3)-AEF-6F2Nal-THP-E-N-3Pya-Sar-CONH2] (Ac-[dR][Pen]NT[Trp(7-Me)]K(Ac)[Pen][AEF][X12][Thp]EN[3Pal][Sar]-NH2; disulfide 2-7) returned a ring closure, yield after HPLC in data set [1] (from Ac-dArg-Pen-Asn-Thr-7MeTrp-Lys(Ac)-Pen-AEF-6F2Nal-THP-Glu-Asn-3Pya-Sar-NH2, 0.85 mM) of 22.1%. In addition, the IC50 on IL-23R (setting [3]) was less than 10 nM; in data set [2] (setting [4]) it was 0.01 to 0.1 nM.
Take `CC(=O)NCCCC[C@@H]1NC(=O)[C@H](Cc2c[nH]c3c(C)cccc23)NC(=O)[C@H]([C@@H](C)O)NC(=O)[C@H](CC(N)=O)NC(=O)[C@@H](NC(=O)[C@@H](CCCNC(=N)N)NC(C)=O)C(C)(C)SSC(C)(C)[C@@H](C(=O)N[C@@H](Cc2ccc(OCCN)cc2)C(=O)N[C@@H](Cc2ccc3cc(O)ccc3c2)C(=O)NC2(C(=O)N[C@@H](CCC(=O)O)C(=O)N[C@@H](CC(N)=O)C(=O)N[C@@H](Cc3cccnc3)C(=O)N(C)CC(=O)N[C@@H](CCCCNC(=O)COCCOCCN(C)C(=O)COCCOCCN(C)C(=O)CC[C@@H](C(=O)O)N(C)C(=O)CCCCCCCCCCCCCCCCCc3nnn[nH]3)C(N)=O)CCOCC2)NC1=O` [SEQ ID NO: 115, MeCO-r-Pen(3)-N-T-7MeW-K(Ac)-Pen(3)-AEF-6OH2Nal-THP-E-N-3Pya-Sar-K(PEG2NMePEG2NMegENMeCl8Tetrazole)-CONH2] (Ac-[dR][Pen]NT[Trp(7-Me)]K(Ac)[Pen][AEF][2Nal(6-OH)][Thp]EN[3Pal][Sar]K(X22)-NH2; disulfide 2-7): the ring closure, yield after HPLC in data set [1] (from Ac-dArg-Pen-Asn-Thr-7MeTrp-Lys(Ac)-Pen-AEF-6OH2Nal-THP-Glu-Asn-3Pya-Sar-Lys(PEG2NMePEG2NMegENMeCl8Tetrazole)-NH2, 0.503 mM) is 8.08%. In addition, the IC50 against IL-23R fell in the range of 10 to 100 nM; in data set [2] (read-out: PBMC pSTAT3 IC50, PBMCs from healthy donors, IL-23 5 ng/mL, 30 minutes), 0.1 to 1 nM.
